Data set [1] deals with T1, MpMurA (Marchantia polymorpha, UniProt A0A2R6X746).
T1 construct: gene MARPO_0032s0102; codon-optimised synthetic gene, E. coli BL21(DE3); His-tag removed with 3C protease; IMAC and SEC
T1 sequence (A0A2R6X746 46-482): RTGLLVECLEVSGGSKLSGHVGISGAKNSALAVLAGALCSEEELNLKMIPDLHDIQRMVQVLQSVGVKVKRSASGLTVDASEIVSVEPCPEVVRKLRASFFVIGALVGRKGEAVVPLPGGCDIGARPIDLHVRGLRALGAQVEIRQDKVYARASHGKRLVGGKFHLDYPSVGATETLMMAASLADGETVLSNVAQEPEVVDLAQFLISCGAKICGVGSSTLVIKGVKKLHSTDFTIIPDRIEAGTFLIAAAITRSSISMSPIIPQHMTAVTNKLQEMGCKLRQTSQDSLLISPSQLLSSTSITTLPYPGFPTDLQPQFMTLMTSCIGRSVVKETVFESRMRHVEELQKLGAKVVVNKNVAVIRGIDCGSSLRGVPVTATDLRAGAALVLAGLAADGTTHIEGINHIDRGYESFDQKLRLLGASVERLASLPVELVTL
Put plainly: phosphate release by malachite green; EPSP product by LC-MS/MS. Conditions: 1 mM S3P, 1 mM PEP; pH 7.5, 25 °C. In kind it is biochemical. The text has this:
phosphate release by malachite green; EPSP product by LC-MS/MS on MpMurA | Phosphate was produced by MpMurA in the presence of […] and PEP

Data set [2] concerns the target T1, MpMurA. Description: phosphate release by malachite green. It is filed as biochemical. Conditions: 1 mM UDP-GlcNAc, 1 mM PEP; pH 7.5, 25 °C.
The next data set addresses T2, MpEPSPS (Marchantia polymorpha, UniProt A0A2R6X5Y9).
T2 construct: gene MARPO_0034s0104; codon-optimised synthetic gene, E. coli BL21(DE3); His-tag removed with 3C protease; IMAC and SEC
T2 sequence (A0A2R6X5Y9 79-527): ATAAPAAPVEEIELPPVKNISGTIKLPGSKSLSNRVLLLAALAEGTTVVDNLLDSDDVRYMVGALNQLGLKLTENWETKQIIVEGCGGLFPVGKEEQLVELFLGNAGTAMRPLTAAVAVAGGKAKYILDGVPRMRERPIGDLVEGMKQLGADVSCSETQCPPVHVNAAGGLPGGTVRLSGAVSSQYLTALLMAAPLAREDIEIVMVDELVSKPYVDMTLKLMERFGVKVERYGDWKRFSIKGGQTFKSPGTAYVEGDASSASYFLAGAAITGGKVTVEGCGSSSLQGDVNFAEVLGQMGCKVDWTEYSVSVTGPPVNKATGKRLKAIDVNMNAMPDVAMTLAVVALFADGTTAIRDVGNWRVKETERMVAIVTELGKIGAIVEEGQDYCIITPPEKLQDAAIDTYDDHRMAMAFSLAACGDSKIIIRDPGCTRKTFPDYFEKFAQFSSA
Description: dose-response of enzyme activity, phosphate release by malachite green. In kind it is biochemical.

Another data set has as its target T3, AtEPSPS (Arabidopsis thaliana, UniProt P05466).
T3 construct: gene At2g45300; codon-optimised synthetic gene, E. coli BL21(DE3); His-tag removed with 3C protease; IMAC and SEC
T3 sequence (P05466 77-520): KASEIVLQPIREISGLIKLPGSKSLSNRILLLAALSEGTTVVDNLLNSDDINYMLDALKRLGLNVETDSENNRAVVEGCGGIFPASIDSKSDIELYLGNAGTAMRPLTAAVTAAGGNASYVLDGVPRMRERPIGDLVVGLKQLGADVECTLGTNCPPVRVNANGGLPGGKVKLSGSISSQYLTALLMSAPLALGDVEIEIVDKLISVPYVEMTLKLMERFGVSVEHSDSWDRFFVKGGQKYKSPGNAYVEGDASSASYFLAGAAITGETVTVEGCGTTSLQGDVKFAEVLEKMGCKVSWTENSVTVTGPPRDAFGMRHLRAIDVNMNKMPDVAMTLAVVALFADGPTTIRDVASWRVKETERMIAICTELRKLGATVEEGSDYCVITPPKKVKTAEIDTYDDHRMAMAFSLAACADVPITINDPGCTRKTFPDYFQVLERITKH
The data set is described as above. It is filed as biochemical.

Substrate in the data set “purified protein”: C=C(OP(=O)(O)O)C(=O)O
Description: purified protein. As to conditions: co-substrate S3P, pH 7.5, 25 °C.

Substrate in data set [3]: O=C(O)C1=C[C@@H](OP(=O)(O)O)[C@@H](O)[C@H](O)C1
Description: Michaelis-Menten kinetics, phosphate release by malachite green. It is filed as biochemical, Arabidopsis thaliana. Conditions: co-substrate PEP, pH 7.5, 25 °C.

Substrate in data set [4]: C=C(OP(=O)(O)O)C(=O)O
The data set is described as above. In kind it is biochemical, Marchantia polymorpha. As to conditions: co-substrate S3P, pH 7.5, 25 °C.

Substrate in data set [5]: O=C(O)C1=C[C@@H](OP(=O)(O)O)[C@@H](O)[C@H](O)C1
Described as above. It is filed as biochemical, Marchantia polymorpha. As to conditions: co-substrate PEP, pH 7.5, 25 °C.

As for `O=C(O)C1=C[C@@H](OP(=O)(O)O)[C@@H](O)[C@H](O)C1` [S3P], the “phosphate release by malachite green; EPSP product by LC-MS/MS” value at MpMurA [1] is “Phosphate was produced by MpMurA in the presence of S3P and PEP”.
Regarding `CC(=O)N[C@H]1[C@@H](OP(=O)(O)OP(=O)(O)OC[C@H]2O[C@@H](n3ccc(=O)[nH]c3=O)[C@H](O)[C@@H]2O)O[C@H](CO)[C@@H](O)[C@@H]1O` [UDP-GlcNAc], the “phosphate release by malachite green” value on MpMurA [2] was “the activity of MpMurA with its canonical substrates, UDP-GlcNAc and PEP, were measured”.
One may read the IC50 as the concentration that inhibits the measured activity by half. Low readings indicate inhibition by little substance, high ones a need for much substance. As to `O=C(O)CNCP(=O)(O)O` [glyphosate], the IC50 at MpEPSPS is 9.6 ± 9.12 µM; against AtEPSPS, 14.5 ± 5.98 µM.

B1: AtEPSPS (Arabidopsis thaliana) (protein)
chain: KASEIVLQPIREISGLIKLPGSKSLSNRILLLAALSEGTTVVDNLLNSDDINYMLDALKRLGLNVETDSENNRAVVEGCGGIFPASIDSKSDIELYLGNAGTAMRPLTAAVTAAGGNASYVLDGVPRMRERPIGDLVVGLKQLGADVECTLGTNCPPVRVNANGGLPGGKVKLSGSISSQYLTALLMSAPLALGDVEIEIVDKLISVPYVEMTLKLMERFGVSVEHSDSWDRFFVKGGQKYKSPGNAYVEGDASSASYFLAGAAITGETVTVEGCGTTSLQGDVKFAEVLEKMGCKVSWTENSVTVTGPPRDAFGMRHLRAIDVNMNKMPDVAMTLAVVALFADGPTTIRDVASWRVKETERMIAICTELRKLGATVEEGSDYCVITPPKKVKTAEIDTYDDHRMAMAFSLAACADVPITINDPGCTRKTFPDYFQVLERITKH
notes: codon-optimised synthetic gene, E. coli BL21(DE3); His-tag removed with 3C protease; IMAC and SEC
Broadly, the Km is the concentration of substrate that gives half-maximal velocity. Turning to B1, the Km in “purified protein” was 163 ± 34 µM; in data set [3], 196.7 ± 44.63 µM.

B2: MpEPSPS (Marchantia polymorpha) (protein)
chain: ATAAPAAPVEEIELPPVKNISGTIKLPGSKSLSNRVLLLAALAEGTTVVDNLLDSDDVRYMVGALNQLGLKLTENWETKQIIVEGCGGLFPVGKEEQLVELFLGNAGTAMRPLTAAVAVAGGKAKYILDGVPRMRERPIGDLVEGMKQLGADVSCSETQCPPVHVNAAGGLPGGTVRLSGAVSSQYLTALLMAAPLAREDIEIVMVDELVSKPYVDMTLKLMERFGVKVERYGDWKRFSIKGGQTFKSPGTAYVEGDASSASYFLAGAAITGGKVTVEGCGSSSLQGDVNFAEVLGQMGCKVDWTEYSVSVTGPPVNKATGKRLKAIDVNMNAMPDVAMTLAVVALFADGTTAIRDVGNWRVKETERMVAIVTELGKIGAIVEEGQDYCIITPPEKLQDAAIDTYDDHRMAMAFSLAACGDSKIIIRDPGCTRKTFPDYFEKFAQFSSA
notes: as for B1
B2: the Michaelis-Menten constant (Km) in data set [4] came out at 180 ± 26 µM; in data set [5] it was 119.7 ± 12.82 µM.

These data come from paper PMC11588093, “MurA-catalyzed synthesis of 5-enolpyruvylshikimate-3-phosphate confers glyphosate tolerance in bryophytes” (Proceedings of the National Academy of Sciences of the …, 2024).
